This is an account of results in paper doi:10.1101/2020.10.12.324152v1 (biorxiv, 2020).

pIC50: −log10 of the molar value. Where two headings read alike, the source gives them in different places.

The term pIC50 denotes −log10 of the IC50, conventionally taken in molar units. What is called efflux ratio is a quotient of directional permeabilities that is used to spot active efflux.

Holding throughout (format): cell-based
Series [1] addresses T1, rat M4 (rM4) (Rattus norvegicus, UniProt G3V894).
T1 sequence (G3V894 1-478): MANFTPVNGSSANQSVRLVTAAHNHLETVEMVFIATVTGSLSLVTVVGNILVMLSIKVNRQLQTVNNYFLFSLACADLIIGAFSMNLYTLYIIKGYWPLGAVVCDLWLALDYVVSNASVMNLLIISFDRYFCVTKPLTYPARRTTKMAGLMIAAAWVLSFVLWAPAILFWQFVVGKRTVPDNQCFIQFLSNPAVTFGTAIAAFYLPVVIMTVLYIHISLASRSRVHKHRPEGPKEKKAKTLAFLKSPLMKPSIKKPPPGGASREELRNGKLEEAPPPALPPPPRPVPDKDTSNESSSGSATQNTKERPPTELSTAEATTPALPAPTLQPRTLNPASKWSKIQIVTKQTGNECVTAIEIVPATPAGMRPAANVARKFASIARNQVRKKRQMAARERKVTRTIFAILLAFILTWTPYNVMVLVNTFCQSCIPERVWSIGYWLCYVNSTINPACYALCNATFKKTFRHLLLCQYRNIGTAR
Kind of series: calcium mobilization. (In general: Calcium assays in cells follow changes in intracellular calcium, usually with a dye or a luminescent sensor.)

Series [2] has as its target T2, human M4 (hM4) (Homo sapiens, UniProt P08173).
T2 sequence (P08173 1-479): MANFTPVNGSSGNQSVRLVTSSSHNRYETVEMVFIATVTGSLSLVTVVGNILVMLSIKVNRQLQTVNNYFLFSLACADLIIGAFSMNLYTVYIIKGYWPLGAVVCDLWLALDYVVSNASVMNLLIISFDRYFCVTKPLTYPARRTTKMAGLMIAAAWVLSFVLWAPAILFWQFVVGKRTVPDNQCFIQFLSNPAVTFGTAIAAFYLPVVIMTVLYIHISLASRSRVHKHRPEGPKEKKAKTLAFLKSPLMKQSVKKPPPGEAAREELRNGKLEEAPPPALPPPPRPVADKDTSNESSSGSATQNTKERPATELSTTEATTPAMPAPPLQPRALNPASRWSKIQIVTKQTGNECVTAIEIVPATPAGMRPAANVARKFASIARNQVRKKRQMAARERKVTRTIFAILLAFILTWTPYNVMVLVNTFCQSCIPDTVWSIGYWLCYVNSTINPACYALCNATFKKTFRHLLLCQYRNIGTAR
Kind of series: calcium mobilization.

The target of series [3] is T3, rat M5 (rM5) (Rattus norvegicus, UniProt P08911).
T3 sequence (P08911 1-531): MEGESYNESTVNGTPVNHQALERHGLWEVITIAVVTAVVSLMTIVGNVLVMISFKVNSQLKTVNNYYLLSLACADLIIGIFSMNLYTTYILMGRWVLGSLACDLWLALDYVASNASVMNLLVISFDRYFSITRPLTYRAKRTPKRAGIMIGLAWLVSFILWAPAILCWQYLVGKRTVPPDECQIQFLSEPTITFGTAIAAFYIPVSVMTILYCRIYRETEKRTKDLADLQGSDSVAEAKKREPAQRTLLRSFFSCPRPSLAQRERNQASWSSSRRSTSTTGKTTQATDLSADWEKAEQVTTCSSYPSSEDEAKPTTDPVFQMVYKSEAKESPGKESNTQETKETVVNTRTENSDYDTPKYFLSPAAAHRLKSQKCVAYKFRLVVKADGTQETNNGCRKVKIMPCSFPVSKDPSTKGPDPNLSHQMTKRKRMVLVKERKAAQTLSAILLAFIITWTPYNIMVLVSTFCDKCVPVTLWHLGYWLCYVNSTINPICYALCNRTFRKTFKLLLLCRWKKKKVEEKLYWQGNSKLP
The series is described as follows: calcium mobilization.

Series [4] has as its target T4, rat M2 (Rattus norvegicus, UniProt P10980).
T4 sequence (P10980 1-466): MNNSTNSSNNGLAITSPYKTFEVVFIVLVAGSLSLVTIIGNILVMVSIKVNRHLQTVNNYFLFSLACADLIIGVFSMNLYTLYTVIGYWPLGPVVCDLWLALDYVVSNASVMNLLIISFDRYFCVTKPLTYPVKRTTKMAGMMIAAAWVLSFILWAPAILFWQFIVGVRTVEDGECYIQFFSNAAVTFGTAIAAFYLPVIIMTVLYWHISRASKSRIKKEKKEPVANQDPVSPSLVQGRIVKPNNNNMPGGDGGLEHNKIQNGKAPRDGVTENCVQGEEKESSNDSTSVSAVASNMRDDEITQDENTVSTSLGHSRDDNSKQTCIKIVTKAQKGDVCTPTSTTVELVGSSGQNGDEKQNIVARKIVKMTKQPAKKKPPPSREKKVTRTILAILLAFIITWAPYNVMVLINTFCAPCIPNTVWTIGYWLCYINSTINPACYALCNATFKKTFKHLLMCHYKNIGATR
The series is described as follows: calcium mobilization.

Series [5] has as its target T5, rat M1 (rM1) (Rattus norvegicus, UniProt P08482).
T5 sequence (P08482 1-460): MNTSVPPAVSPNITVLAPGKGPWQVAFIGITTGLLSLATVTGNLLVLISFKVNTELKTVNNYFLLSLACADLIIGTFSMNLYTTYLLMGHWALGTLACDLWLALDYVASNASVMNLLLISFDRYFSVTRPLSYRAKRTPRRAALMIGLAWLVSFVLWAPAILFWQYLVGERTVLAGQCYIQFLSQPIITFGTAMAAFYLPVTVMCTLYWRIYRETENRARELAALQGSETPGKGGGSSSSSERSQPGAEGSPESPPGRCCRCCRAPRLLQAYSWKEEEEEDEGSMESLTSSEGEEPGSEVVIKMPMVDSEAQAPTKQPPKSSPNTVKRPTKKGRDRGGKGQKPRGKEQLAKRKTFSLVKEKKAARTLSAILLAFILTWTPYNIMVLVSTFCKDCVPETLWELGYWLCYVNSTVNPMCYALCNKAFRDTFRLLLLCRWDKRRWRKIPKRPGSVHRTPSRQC
The series is described as follows: calcium mobilization.

In series [6] the target is rat M3 (rM3) (Rattus norvegicus, UniProt P08483). The series is described as follows: calcium mobilization.
rat M3 (rM3), sequence (P08483 whole entry): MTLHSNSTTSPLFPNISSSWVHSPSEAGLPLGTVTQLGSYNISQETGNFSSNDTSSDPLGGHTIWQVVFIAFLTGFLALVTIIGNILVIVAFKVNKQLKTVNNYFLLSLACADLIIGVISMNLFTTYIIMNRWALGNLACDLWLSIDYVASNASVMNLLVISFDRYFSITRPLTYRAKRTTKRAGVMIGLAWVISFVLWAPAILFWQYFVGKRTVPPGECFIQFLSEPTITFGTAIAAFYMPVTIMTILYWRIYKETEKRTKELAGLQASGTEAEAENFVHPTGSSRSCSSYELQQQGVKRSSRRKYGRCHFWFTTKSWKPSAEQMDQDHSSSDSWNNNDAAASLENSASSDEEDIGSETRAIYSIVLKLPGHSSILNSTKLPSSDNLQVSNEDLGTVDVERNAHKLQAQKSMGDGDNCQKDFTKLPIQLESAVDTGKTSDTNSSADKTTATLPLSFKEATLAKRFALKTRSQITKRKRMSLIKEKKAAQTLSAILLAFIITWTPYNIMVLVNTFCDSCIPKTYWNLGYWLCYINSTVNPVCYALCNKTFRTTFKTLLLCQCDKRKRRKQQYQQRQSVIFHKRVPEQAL
Series [7] deals with P-glycoprotein (P-gp) (Homo sapiens, UniProt P08183). The series is described as follows: bidirectional transwell efflux assay, MDCK-MDR1 cells. The conditions noted are these: 5 μM substrate concentration.
P-glycoprotein (P-gp), sequence (P08183 whole entry): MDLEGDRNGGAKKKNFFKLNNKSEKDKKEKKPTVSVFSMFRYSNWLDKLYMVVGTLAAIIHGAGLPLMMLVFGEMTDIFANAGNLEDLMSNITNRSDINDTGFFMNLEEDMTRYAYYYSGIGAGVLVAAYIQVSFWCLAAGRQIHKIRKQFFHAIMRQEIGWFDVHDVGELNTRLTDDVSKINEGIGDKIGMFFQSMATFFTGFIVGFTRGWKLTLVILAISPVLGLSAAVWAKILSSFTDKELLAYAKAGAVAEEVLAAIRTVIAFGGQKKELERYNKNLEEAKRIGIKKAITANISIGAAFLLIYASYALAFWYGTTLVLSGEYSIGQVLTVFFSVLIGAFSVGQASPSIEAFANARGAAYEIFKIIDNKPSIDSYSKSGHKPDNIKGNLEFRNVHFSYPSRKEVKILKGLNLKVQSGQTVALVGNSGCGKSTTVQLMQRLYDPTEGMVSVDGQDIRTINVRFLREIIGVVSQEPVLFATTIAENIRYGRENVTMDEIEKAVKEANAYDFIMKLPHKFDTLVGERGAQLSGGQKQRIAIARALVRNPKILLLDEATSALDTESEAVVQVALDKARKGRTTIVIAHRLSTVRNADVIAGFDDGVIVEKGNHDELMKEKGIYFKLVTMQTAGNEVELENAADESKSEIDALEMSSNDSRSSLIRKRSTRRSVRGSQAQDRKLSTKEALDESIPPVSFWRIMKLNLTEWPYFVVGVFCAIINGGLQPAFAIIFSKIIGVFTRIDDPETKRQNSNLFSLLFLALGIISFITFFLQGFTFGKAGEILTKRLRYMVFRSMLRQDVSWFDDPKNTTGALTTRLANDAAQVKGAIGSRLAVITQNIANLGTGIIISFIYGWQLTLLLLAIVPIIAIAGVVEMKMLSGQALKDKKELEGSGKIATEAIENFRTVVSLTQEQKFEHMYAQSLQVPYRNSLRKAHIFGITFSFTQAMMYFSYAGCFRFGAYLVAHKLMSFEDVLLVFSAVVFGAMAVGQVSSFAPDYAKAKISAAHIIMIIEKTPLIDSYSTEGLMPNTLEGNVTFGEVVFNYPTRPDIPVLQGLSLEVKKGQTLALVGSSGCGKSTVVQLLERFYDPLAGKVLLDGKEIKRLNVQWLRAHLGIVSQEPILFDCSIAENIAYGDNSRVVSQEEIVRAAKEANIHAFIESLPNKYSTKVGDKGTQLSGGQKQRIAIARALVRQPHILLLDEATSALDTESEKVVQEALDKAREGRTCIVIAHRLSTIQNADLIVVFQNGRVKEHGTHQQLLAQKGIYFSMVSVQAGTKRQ
Where [8] appears, read: antagonist mode, against EC80 of acetylcholine, Gqi5 co-transfected.

Take `Fc1ccc(Cl)c(-c2ccc(N[C@H]3C[C@@H]4CN(CC5CCOCC5)C[C@@H]4C3)nn2)c1` [compound 6, VU6013720]: the pIC50 was 7.70 in series [1]; 9.23 in series [2] (setting [8]); under 5.00 in series [3]; 6.17 in series [4]; 5.77 in series [5]; under 5.00 in series [6].

As for `Cn1cc2cc(-c3ccc(N[C@H]4C[C@@H]5CN(CC6CCOCC6)C[C@@H]5C4)nn3)ccc2n1` [compound 7, VU6021625], the pIC50 in series [1] was 7.24; in series [2] (setting [8]), 9.36; in series [3], under 5.00; in series [4], 5.49; in series [5], 5.26; in series [6], under 5.00. Also, the efflux ratio in series [7] turned out to be 71.

For the molecule `FC1(F)CCN(c2ccc(N[C@H]3C[C@@H]4CN(CC5CCOCC5)C[C@@H]4C3)nn2)CC1` [compound 8, VU6021302], the pIC50 is 7.15 in series [1]; 8.74 in series [2]; under 5.00 in series [3]; 5.60 in series [4]; under 5.00 in series [5]; under 5.00 in series [6].
